Tests used:
[1] = tested on: OPM-2 human multiple myeloma cell line; experiment: Cell Viability Assay (OPM-2 10 FBS); assay type: cell-based; settings: OPM-2 cells, CellTiter-Glo
Experimental: Cell Viability Assay (OPM-2 10 FBS)
Cells were seeded into 384-well plates at 3000 cells/well density in complete growth medium containing 10% FBS, and incubated for 16 h with serially diluted test compounds in a 37° C. incubator with 5% CO2. Cell viability was tested using CellTiter-Glo® assay (Promega, Madison, WI) according to the manufacturer recommendations. Luminescence was determined using an EnVision® Multilabel plate reader 25 min after the addition of detection reagent. IC50 values were then calculated with Xlfit using a logistical 4-parameter fit model in GraphPad Prism (GraphPad Software, San Diego, CA) or in Genedata Screener® (Genedata, Basel, Switzerland).

[2] = biological target: T1, Mcl-1/Bim interaction, recombinant human Mcl-1 (171-327) (Homo sapiens, UniProt Q07820); experiment: Cell free Mcl-1: Bim Affinity Assay (Mcl-1 HTRF); assay type: binding
T1 construct: made in house
Summary of the method: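 Read-out is time-resolved FRET after overnight incubation, using a biotin-labelled peptide from human Bim (51-76) as the binding partner; IC50 was derived from competition curves.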

[3] = TR-FRET, 0.1 nM Mcl-1 (171-327), 0.05 nM biotin-Bim (51-76)
[4] = Homo sapiens, OPM-2, 16 h, 16 h
[5] = cell free Mcl-1:Bim TR-FRET, recombinant human Mcl-1 (171-327)
[6] = Homo sapiens, OPM-2, 16 h, 16 h incubation

T1 sequence (Q07820 171-327): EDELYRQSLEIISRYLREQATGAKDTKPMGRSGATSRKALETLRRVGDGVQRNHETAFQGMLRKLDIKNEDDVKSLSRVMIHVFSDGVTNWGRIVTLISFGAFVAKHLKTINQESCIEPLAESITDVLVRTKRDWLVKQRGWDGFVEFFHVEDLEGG

Molecule: CC(C)(C)S(=O)(=O)CC[C@@H]1CC/C=C/[C@H](O)[C@@H]2CC[C@H]2CN2C[C@@]3(CCCc4cc(Cl)ccc43)COc3ccc(cc32)C(=O)NS1(=O)=O.CC(C)(C)S(=O)(=O)CC[C@H]1CC/C=C/[C@H](O)[C@@H]2CC[C@H]2CN2C[C@@]3(CCCc4cc(Cl)ccc43)COc3ccc(cc32)C(=O)NS1(=O)=O (mixture of isomers) [Example 154]
- IC50 ([1]; 16 h): 7.58 µM
- IC50 [2, 3]: 0.000258 µM

Molecule: CNC(=O)[C@@H](OC)[C@@H]1/C=C/[C@@H]2CC[C@H]2CN2C[C@@]3(CCCc4cc(Cl)ccc43)COc3ccc(cc32)C(=O)NS(=O)(=O)[C@H](C)[C@@H](C)C1.CNC(=O)[C@H](OC)[C@@H]1/C=C/[C@@H]2CC[C@H]2CN2C[C@@]3(CCCc4cc(Cl)ccc43)COc3ccc(cc32)C(=O)NS(=O)(=O)[C@H](C)[C@@H](C)C1 (mixture of isomers) [Example 362]
- IC50 ([1]; 16 h): 0.476 µM
- IC50 [2, 3]: 0.000639 µM

Molecule: C[C@@H]1CC/C=C/[C@H](OC[C@H](O)CO)[C@@H]2CC[C@H]2CN2C[C@@]3(CCCc4cc(Cl)ccc43)COc3ccc(cc32)C(=O)NS1(=O)=O (mixture of isomers) [Example 415]
- IC50 [1, 4]: 2.64 µM
- IC50 [2, 3]: 0.000276 µM

Molecule: C[C@@H]1[C@@H](C)C/C=C/[C@H](OCCO[C@H]2CCCCO2)[C@@H]2CC[C@H]2CN2C[C@@]3(CCCc4cc(Cl)ccc43)COc3ccc(cc32)C(=O)NS1(=O)=O (mixture of isomers) [Example 517]
- IC50 [1, 4]: 0.467 µM
- IC50 [2, 5]: 0.00187 µM

Molecule: COC(C)COC1C=CCC(C)C(C)S(=O)(=O)NC(=O)c2ccc3c(c2)N(CC2CCC21)CC1(CCCc2cc(Cl)ccc21)CO3 (mixture of isomers) [Example 519]
- IC50 ([1]; 16 h): 0.339 µM
- IC50 [2, 5]: 0.00144 µM

Molecule: COCC1COCCN1CCOC1C=CCC(C)C(C)S(=O)(=O)NC(=O)c2ccc3c(c2)N(CC2CCC21)CC1(CCCc2cc(Cl)ccc21)CO3 (mixture of isomers) [Example 530]
- IC50 ([1]; 16 h): 0.134 µM
- IC50 [2, 5]: 0.000763 µM

Molecule: O=C1NS(=O)(=O)N(CC2CCCO2)C/C=C/[C@H](O)[C@@H]2CC[C@H]2CN2C[C@@]3(CCCc4cc(Cl)ccc43)COc3ccc1cc32 (mixture of isomers) [Example 691]
- IC50 [1, 4]: 2.33 µM
- IC50 [2, 5]: 0.00181 µM

Molecule: COCC(C)OC1C=CCCC(C)S(=O)(=O)NC(=O)c2ccc3c(c2)N(CC2CCC21)CC1(CCCc2cc(Cl)ccc21)CO3 (mixture of isomers) [Example 955]
- IC50 ([1]; 16 h incubation): 0.567 µM
- IC50 [2, 3]: 0.00123 µM

Molecule: CCC1CCC=CC(OC(C)C(=O)OC)C2CCC2CN2CC3(CCCc4cc(Cl)ccc43)COc3ccc(cc32)C(=O)NS1(=O)=O (mixture of isomers) [Example 1004]
- IC50 ([1]; 16 h incubation): 0.0236 µM
- IC50 [2, 3]: 0.000635 µM

Molecule: CCC1CCC=CC(OC(C)C(N)=O)C2CCC2CN2CC3(CCCc4cc(Cl)ccc43)COc3ccc(cc32)C(=O)NS1(=O)=O (mixture of isomers) [Example 1006]
- IC50 ([1]; 16 h incubation): 11.6 µM
- IC50 [2, 3]: 0.00081 µM

Molecule: CO[C@H]1/C=C/CCN(C)S(=O)(=O)NC(=O)c2ccc3c(c2)N(C[C@@H]2CC[C@H]21)C[C@@]1(CCCc2cc(Cl)ccc21)CO3 (single isomer, unassigned) [Example 47]
- IC50 [1, 4]: 1.28 µM
- IC50 [2, 3]: 0.000629 µM

Molecule: C[C@H]1C/C=C/[C@H](O)[C@@H]2CC[C@H]2CN2C[C@@]3(CCCc4cc(Cl)ccc43)COc3ccc(cc32)C(=O)NS(=O)(=O)N1C[C@@H]1CCCO1 (single isomer, unassigned) [Example 49]
- IC50 [1, 4]: 0.445 µM
- IC50 [2, 3]: 0.000321 µM

Molecule: C[C@H]1C/C=C\[C@H](O)[C@@H]2CC[C@H]2CN2C[C@@]3(CCCc4cc(Cl)ccc43)COc3ccc(cc32)C(=O)NS(=O)(=O)N1C[C@@H]1CCCO1 (single isomer, unassigned) [Example 50]
- IC50 [1, 4]: 2.21 µM
- IC50 [2, 3]: 0.00362 µM

Molecule: C[C@@H]1C/C=C/[C@H](O)[C@@H]2CC[C@H]2CN2C[C@@]3(CCCc4cc(Cl)ccc43)COc3ccc(cc32)C(=O)NS(=O)(=O)N1C[C@@H]1CCCO1 (single isomer, unassigned) [Example 51]
- IC50 [1, 4]: 1.83 µM
- IC50 [2, 3]: 0.00559 µM

Molecule: C[C@@H]1C/C=C\[C@H](O)[C@@H]2CC[C@H]2CN2C[C@@]3(CCCc4cc(Cl)ccc43)COc3ccc(cc32)C(=O)NS(=O)(=O)N1C[C@@H]1CCCO1 (single isomer, unassigned) [Example 52]
- IC50 [1, 4]: 1.81 µM
- IC50 [2, 3]: 0.00393 µM

Molecule: C[C@H]1C/C=C/[C@H](O)[C@@H]2CC[C@H]2CN2C[C@@]3(CCCc4cc(Cl)ccc43)COc3ccc(cc32)C(=O)NS(=O)(=O)N1C[C@H]1CCCO1 (single isomer, unassigned) [Example 53]
- IC50 [1, 4]: 0.486 µM
- IC50 [2, 3]: 0.00079 µM

Molecule: C[C@H]1C/C=C\[C@H](O)[C@@H]2CC[C@H]2CN2C[C@@]3(CCCc4cc(Cl)ccc43)COc3ccc(cc32)C(=O)NS(=O)(=O)N1C[C@H]1CCCO1 (single isomer, unassigned) [Example 54]
- IC50 [1, 4]: 0.774 µM
- IC50 [2, 3]: 0.000781 µM

Molecule: C[C@@H]1C/C=C\[C@H](O)[C@@H]2CC[C@H]2CN2C[C@@]3(CCCc4cc(Cl)ccc43)COc3ccc(cc32)C(=O)NS(=O)(=O)N1C[C@H]1CCCO1 (single isomer, unassigned) [Example 56]
- IC50 [1, 4]: 1.79 µM
- IC50 [2, 3]: 0.00304 µM

Molecule: CCN1[C@@H](C)C/C=C/[C@H](O)[C@@H]2CC[C@H]2CN2C[C@@]3(CCCc4cc(Cl)ccc43)COc3ccc(cc32)C(=O)NS1(=O)=O (single isomer, unassigned) [Example 57]
- IC50 [1, 4]: 0.555 µM
- IC50 [2, 3]: 0.000491 µM

Molecule: CCN1C(C)C/C=C\[C@H](O)[C@@H]2CC[C@H]2CN2C[C@@]3(CCCc4cc(Cl)ccc43)COc3ccc(cc32)C(=O)NS1(=O)=O (single isomer, unassigned) [Example 58]
- IC50 ([1]; 16 h): 1.18 µM
- IC50 [2, 3]: 0.000994 µM

Molecule: CO[C@H]1C/C=C/[C@H](C)[C@@H](C)S(=O)(=O)NC(=O)c2ccc3c(c2)N(C[C@@H]2CC[C@H]21)C[C@@]1(CCCc2cc(Cl)ccc21)CO3 [Example 17, (1S,3′R,6′R,7′S,9′E,11′S,12′R)-6-chloro-7′-methoxy-11′,12′-dimethyl-3,4-dihydro-2H,15′H-spiro[naphthalene-1,22′-[20]oxa[13]thia[1,14]diazatetracyclo[14.7.2.0^3,6.0^19,24]pentacosa[9,16,18,24]tetraen]-15′-one 13′,13′-dioxide]
- IC50 ([1]; Homo sapiens, 16 h): 7.92 µM

Molecule: CC[C@@H]1CCCCC(=O)[C@@H]2CC[C@H]2CN2C[C@@]3(CCCc4cc(Cl)ccc43)COc3ccc(cc32)C(=O)NS1(=O)=O [Example 886, (1S,3′R,6′R,12′R)-6-chloro-12′-ethyl-3,4-dihydro-2H,7′H,15′H-spiro[naphthalene-1,22′-[20]oxa[13]thia[1,14]diazatetracyclo[14.7.2.0^3,6.0^19,24]pentacosa [16,18,24]triene]-7′,15′-dione 13′,13′-dioxide]
- IC50 [1, 4]: 12.3 µM

Molecule: CC[C@@H]1CC/C=C/[C@H](OCC(=O)N2CCOCC2)[C@@H]2CC[C@H]2CN2C[C@@]3(CCCc4cc(Cl)ccc43)COc3ccc(cc32)C(=O)NS1(=O)=O [Example 979, (1S,3′R,6′R,7′S,8′E,12′R)-6-chloro-12′-ethyl-7′-(2-(4-morpholinyl)-2-oxoethoxy)-3,4-dihydro-2H,15′H-spiro[naphthalene-1,22′-[20]oxa[13]thia[1,14]diazatetracyclo[14.7.2.0^3,6.0^19,24]pentacosa [8,16,18,24]tetraen]-15′-one 13′,13′-dioxide]
- IC50 [1, 6]: 16.9 µM

Molecule: CC[C@@H]1CC/C=C/[C@H](OCCC(=O)OC)[C@@H]2CC[C@H]2CN2C[C@@]3(CCCc4cc(Cl)ccc43)COc3ccc(cc32)C(=O)NS1(=O)=O [Example 1007]
- IC50 [1, 6]: 0.074 µM

Molecule: (1S,3′R,6′S,14′S,15′S)-6-chloro-3,4-dihydro-2H,9′H,17′H-spiro[naphthalene-1,24′-[22]oxa[15]thia[1,10,16]triazapentacyclo[16.7.2.1^10,14.0^3,6.0^21,26]octacosa[18,20,26]triene]-9′,17′-dione 15′-oxide or (1S,3′R,6′S,14′S,15′R)-6-chloro-3,4-dihydro-2H,9′H,17′H-spiro[naphthalene-1,24′-[22]oxa[15]thia[1,10,16]triazapentacyclo[16.7.2.1^10,14.0^3,6.0^21,26]octacosa[18,20,26]triene]-9′,17′-dione 15′-oxide [Example 949]
- IC50 [2, 5]: 0.00843 µM

Molecule: (3R,6R,7R,11E,22S)-6′-chloro-7-hydroxy-3′,4′-dihydro-2′H,15H-spiro[9,20-dioxa-13-thia-1,14-diazatetracyclo[14.7.2.0^3,6.0^19,24]pentacosa-11,16,18,24-tetraene-22,1′-naphthalen]-15-one 13,13-dioxide or (3R,6R,7S,11E,22S)-6′-chloro-7-hydroxy-3′,4′-dihydro-2′H,15H-spiro[9,20-dioxa-13-thia-1,14-diazatetracyclo[14.7.2.0^3,6.0^19,24]pentacosa-11,16,18,24-tetraene-22,1′-naphthalen]-15-one 13,13-dioxide [Example 863]
- IC50 [2, 5]: 0.00538 µM

Molecule: N-((1S,3′R,6′R,7′S)-6-chloro-13′,13′-dioxido-15′-oxo-3,4-dihydro-2H-spiro[naphthalene-1,22′-[20]oxa[13]thia[1,14]diazatetracyclo[14.7.2.0^3,6.0^19,24]pentacosa [16,18,24]trien]-7′-yl)acetamide or N-((1S,3′R,6′R,7′R)-6-chloro-13′,13′-dioxido-15′-oxo-3,4-dihydro-2H-spiro[naphthalene-1,22′-[20]oxa[13]thia[1,14]diazatetracyclo[14.7.2.0^3,6.0^19,24]pentacosa [16,18,24]trien]-7′-yl)acetamide [Example 934]
- IC50 [2, 5]: 0.00207 µM
